In patent US11034678B2, “Diacylglycerol acyl transferase 2 inhibitors” (Pfizer Inc., priority 2016, dated 2021):

Experiment: Metabolic clearance in HLM (hepatic clearance profile, Clint, app)
Type: in vitro ADME, human

| Compound | CIint, app in HLM |
| --- | --- |
| CCOc1cccnc1Oc1cncc(-c2ncc(C(=O)NC(C)(C)CO)cn2)c1 [Example 5, 2-(5-((3-Ethoxypyridin-2-yl)oxy)pyridin-3-yl)-N-(1-hydroxy-2-methylpropan-2-yl)pyrimidine-5-carboxamide] | 18 µL/min/mg |
| CCOc1ccccc1O[C@@H]1CCCN(c2ncc(C(=O)NC(C)(C)CO)cn2)C1 [WO2015140658 Example 19.21] | 121 µL/min/mg |
